Where two headings read alike, the source gives them in different places.
Columns and labels:
CT26 P3 tumor = experiment: ICB-refractory CT26 P3 tumor-bearing mice, anti-PD-L1 antibody alone or combined with DHA; assay type: in vivo, mouse; conditions: both the anti-PD-L1 blockade agent and DHA; all mice in the other groups died
Procedure: Next, the present inventors expanded the preclinical therapeutic value of DHA in ICB therapy. To do this, ICB-refractory CT26 P3 tumor-bearing mice were administered anti-PD-L1 antibody alone or combined with DHA (FIG. 7G).

CT26 TCTP cells = experiment: Cell viability assay (trypan blue exclusion), CT26 TCTP cells; assay type: cell-based
Procedure: (§1) CT26 tumor cells were treated with indicated concentrations of cisplatin, dihydroartemisinin, rapamycin, sertraline, and thioridazine for 24 hours. Cell viability was measured by the trypan blue exclusion assay, and the concentrations causing a 50% decrease in cell viability (IC50 values) were determined.

CT26 No cells = experiment: Cell viability assay (trypan blue exclusion), CT26 No cells; assay type: cell-based; conditions: Mus musculus, 24 hours, read-out: IC50 (concentration causing a 50% decrease in cell viability)
Procedure: as §1

CT26 TCTP tumor cells = test system: CT26 TCTP tumor cells
Procedure: The tumor cells were harvested by trypsinization and washed once with DMEN (Thermo Fisher, USA) containing 0.1% fetal bovine (FBS), resuspended, and labeled in 0.1% DMEN with 10 μM CFSE for 10 minutes in a 37° C. incubator with 5% CO2. Then, the CFSE-labeled (MCF-7, HCT116, CaSki, MDA-MB-231) tumor cells were resuspended in 10 μM MART-1 peptide containing 1 ml of DMEM. In the case of A375 and 526Mel, the peptide-pulsing process was not needed. After peptide-pulsing for 1 hour, the cells were incubated for 4 hours with MART-1- or the NY-ESO1-specific CD8+ T cell lines at an E/T ratio of 1:1. […] All analysis was performed using a Becton Dickinson FACSverse (BD Bioscience, USA).
To further investigate the effect of each drug on sensitizing TCTP^high tumor cells to CTL-mediated killing, CT26 TCTP tumor cells were incubated with CTLs at various tumor cell-T cell ratios after treatment with a sublethal dose of each drug.
To quantify the synergistic effects of treatment of each drug with CTLs, a combination score was calculated based on changes in the percentage of apoptosis in drug-treated tumor cells with or without CTLs (see the following formula 1). […] Formula 1

`C[C@H]1[C@@H](O)O[C@@H]2O[C@@]3(C)CC[C@H]4[C@H](C)CC[C@@H]1[C@@]24OO3` [DHA, dihydroartemisinin] was tested, and the Mice that survived (CT26 P3 tumor) was 90%, the “Difference of IC50 between CT26 No and CT26 TCTP cells” value (CT26 TCTP cells; CT26 No vs CT26 TCTP) was “about 20 fold” and the IC50 (CT26 TCTP cells; Mus musculus, CT26 TCTP cells, 24 hours, read-out: IC50 (concentration causing a 50% decrease in cell viability)) was 22.7 µM. For the same compound, the IC50 (CT26 No cells) was 408 µM and the CTL-mediated cytotoxicity (CT26 TCTP tumor cells; sublethal dose of each drug, then CTLs at various tumor cell-T cell ratios, compared to PBS or cisplatin) was “augmented CTL-mediated cytotoxicity in a synergistic fashion”.

For `N.N.[Cl][Pt][Cl]` [cisplatin], the “Susceptibility of CT26 TCTP cells to the drug” value (CT26 TCTP cells; CT26 TCTP vs CT26 No cells, 24 hours) was “refractory”.

With `CO[C@H]1C[C@@H]2CC[C@@H](C)[C@@](O)(O2)C(=O)C(=O)N2CCCC[C@H]2C(=O)O[C@H]([C@H](C)C[C@@H]2CC[C@@H](O)[C@H](OC)C2)CC(=O)[C@H](C)/C=C(\C)[C@@H](O)[C@@H](OC)C(=O)[C@H](C)C[C@H](C)/C=C/C=C/C=C/1C` [rapamycin] the CTL-mediated cytotoxicity (CT26 TCTP tumor cells) was “augmented CTL-mediated cytotoxicity in a synergistic fashion”.

For `CN[C@H]1CC[C@@H](c2ccc(Cl)c(Cl)c2)c2ccccc21` [sertraline], the CTL-mediated cytotoxicity (CT26 TCTP tumor cells) was “augmented CTL-mediated cytotoxicity in a synergistic fashion”.

`CSc1ccc2c(c1)N(CCC1CCCCN1C)c1ccccc1S2` (stereo not drawn) [thioridazine] was tested, and the CTL-mediated cytotoxicity (CT26 TCTP tumor cells) was “augmented CTL-mediated cytotoxicity in a synergistic fashion”.

From patent US12111318B2, “Method for treating cancer based on expression levels of translationally controlled tumor protein (TCTP)” (KOREA UNIVERSITY RESEARCH AND BUSINESS FOUNDATION, priority 2020, dated 2024)
